Measurements reported in US12187706B2, “NLRP3 modulators” (INNATE TUMOR IMMUNITY, INC., priority 2019, dated 2025).

The molecules below were run against T1, NLRP3 (Homo sapiens, UniProt Q96P20) (assay: Measurement of IL-1β production in PMA-differentiated THP-1 cells (NLRP3 hIL1B)).
T1 construct: host or cells: PMA-differentiated THP-1 cells
Type: cell-based
Method: Measurement of IL-1β Production in PMA-Differentiated THP-1 Cells
THP-1 cells were purchased from the American Type Culture Collection and sub-cultured according to instructions from the supplier. Prior to experiments, cells were cultured in RPMI 1640 containing 10% heat inactivated FBS, penicillin (100 units/ml) and streptomycin (100 μg/ml), and maintained in log phase prior to experimental setup. Prior to the experiment THP-1 were treated with PMA (Phorbol 12-myristate 13-acetate) (10 μg/ml) for 24 hours. The day of the experiment the media was removed and attaching cells were treated with trypsin for 2 minutes, cells were then collected, washed with PBS (phosphate buffer saline), spin down, resuspended in 2% heat inactivated FBS with RPMI at a concentration of 1×10^6 cells/ml, and 100 μl was plated in a 96 well plate. Compounds were dissolved in dimethyl sulfoxide (DMSO) and added to the culture medium to achieve desired concentration (e.g. 100, 30, 10, 3, 1, 0.3 or 0.1 μM). Cells were incubated with compounds for 4 hours. Cell free supernatant was collected and the production of IL-1β was evaluated by ELISA. A vehicle only control was run concurrently with each experiment. Final DMSO concentration was 1%.
Measurement of IL-1β Production in PMA-Differentiated THP-1 Cells (Alternative Procedure)
THP-1 cells were purchased from the American Type Culture Collection and sub-cultured according to instructions from the supplier. Prior to experiments, cells were cultured in RPMI 1640 containing 10% heat inactivated FBS, penicillin (100 units/ml), streptomycin (100 μg/ml), HEPES (10 mM) and sodium pyruvate (1 mM) and maintained in log phase prior to experimental setup. Prior to the experiment, THP-1 cells were treated with PMA (Phorbol 12-myristate 13-acetate) (20 μg/ml) overnight. The day of the experiment, the media was removed and attached cells were treated with trypsin for 2 minutes, cells were then collected, washed with PBS (phosphate buffer saline), pelleted by centrifugation and resuspended in 2% heat inactivated FBS with RPMI at a concentration of 50,000 cells/well in a 384 well plate. Cell free supernatant was collected and the production of IL-1β was evaluated by ELISA. Compounds were dissolved in dimethyl sulfoxide (DMSO) and added to the culture medium to achieve desired concentration (e.g. 100, 30, 10, 3, 1, 0.3 or 0.1 μM). Cells were incubated with compounds for 2 hours. A vehicle only control was run concurrently with each experiment. Final DMSO concentration was 1%.
Measurement of IL-1β Production—hTRF Protocol (Second Alternative Procedure)
Serial dilutions of compounds in DMSO were added to low volume 384 well plates at 100 nl/well using an ECHO 550 acoustic dispenser (Labcyte) to achieve final starting concentration of 10 μM in assay.
THP-1 cells in RPMI (Gibco, 11875) media with 10% FBS at a density of 1×10^6 cell/ml in a T175 flask were treated with a final concentration of phorbol 12-myristate 13-acetate (PMA) (Sigma, P1585) of 50 ng/ml overnight at 37° C. at 5% CO2 for differentiation. Cells were harvested the next day after rinsing well with dPBS using 0.5% trypsin. A cell solution was prepared of 1×10^6 cells/ml for 50,000 cells in 50 μl/well in RPMI media with 2% FBS. Cells were plated using a multichannel pipette onto the compound dilutions in Greiner, 384 well, black clear bottom tissue culture treated plates (781090). The plates were incubated in 37° C. incubator at 5% CO2 for 2 hours.
After the 2 hour incubation, the cell plates were spun in the centrifuge for 5 minutes at 1200 rpm. Using the Felix (CyBio), 8 μl of the supernatant was transferred to 384 well, low volume, white proxy plates. (Perkin Elmer, 6008230). A human IL1beta hTRF kit was used to analyze the supernatant (CISBIO, 62HIL1BPEG). The kit instructions were followed for preparing the IL1Beta standard curve and then the antibodies from the kit were diluted 1:40 rather than 1:20 as kit instructed.

T1 sequence (Q96P20 whole entry): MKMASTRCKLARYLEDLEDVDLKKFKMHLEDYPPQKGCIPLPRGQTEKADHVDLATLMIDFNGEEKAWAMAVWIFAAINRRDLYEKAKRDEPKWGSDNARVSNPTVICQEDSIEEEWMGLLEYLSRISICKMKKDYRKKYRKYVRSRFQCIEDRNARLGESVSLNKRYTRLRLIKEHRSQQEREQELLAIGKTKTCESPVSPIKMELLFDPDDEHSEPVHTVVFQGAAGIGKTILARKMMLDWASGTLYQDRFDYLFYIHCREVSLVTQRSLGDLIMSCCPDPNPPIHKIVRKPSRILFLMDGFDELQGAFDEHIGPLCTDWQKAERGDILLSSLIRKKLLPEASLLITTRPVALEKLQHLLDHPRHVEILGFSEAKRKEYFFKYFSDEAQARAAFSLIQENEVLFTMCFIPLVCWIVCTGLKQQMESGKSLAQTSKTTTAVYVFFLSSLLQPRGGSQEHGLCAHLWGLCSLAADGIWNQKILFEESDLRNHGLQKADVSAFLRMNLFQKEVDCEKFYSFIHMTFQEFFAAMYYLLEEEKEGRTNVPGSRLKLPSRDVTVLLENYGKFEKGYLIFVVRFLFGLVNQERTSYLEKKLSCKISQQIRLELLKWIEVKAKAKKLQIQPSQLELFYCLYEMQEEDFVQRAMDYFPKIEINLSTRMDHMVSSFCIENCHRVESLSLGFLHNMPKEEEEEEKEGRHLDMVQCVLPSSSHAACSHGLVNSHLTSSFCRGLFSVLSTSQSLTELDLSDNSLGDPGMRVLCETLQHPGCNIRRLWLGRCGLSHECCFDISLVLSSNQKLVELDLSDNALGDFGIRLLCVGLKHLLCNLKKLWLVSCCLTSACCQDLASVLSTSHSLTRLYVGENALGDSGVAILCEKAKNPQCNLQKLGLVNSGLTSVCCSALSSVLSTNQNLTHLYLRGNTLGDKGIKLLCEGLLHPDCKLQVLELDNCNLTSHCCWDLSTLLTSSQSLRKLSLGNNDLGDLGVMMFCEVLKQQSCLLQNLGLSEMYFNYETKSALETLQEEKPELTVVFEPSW

Row | Structure (SMILES) | EC50 [nM]
1 | Nc1nc(NCCCO)c2cc(F)c(-c3ccn[nH]3)cc2n1 [Example 24, 3-((2-amino-6-fluoro-7-(1H-pyrazol-5-yl)quinazolin-4-yl)amino)propan-1-ol] | 1680
2 | COCC(O)CNc1nc(N)nc2cc(-c3ccn[nH]3)ccc12 (stereo not drawn) [Example 72] | 530
3 | Nc1nc(NCc2ccnnc2)c2ccc(-c3ccn[nH]3)cc2n1 [Example 60] | 3490
4 | NC(=O)CC(Nc1nc(N)nc2cc(-c3ccn[nH]3)ccc12)c1cccnc1 (stereo not drawn) [Example 82] | 3650
5 | N#C[C@H]1CC[C@H](Nc2nc(N)nc3cc(-c4ccn[nH]4)ccc23)CC1 [Example 182] | 130
6 | COCc1noc(CNc2nc(N)nc3cc(-c4ccn[nH]4)ccc23)n1 [Example 76] | 760
7 | Cc1cc(-c2cc[nH]n2)cc2nc(N)nc(NCc3cc[nH]n3)c12 [Example 137] | 170
8 | Cc1cc(-c2cc[nH]n2)cc2nc(N)nc(NCCCO)c12 [Example 21, 3-((2-amino-5-methyl-7-(1H-pyrazol-3-yl)quinazolin-4-yl)amino)propan-1-ol] | 650
9 | Cn1ccnc1C(O)CNc1nc(N)nc2cc(-c3ccn[nH]3)ccc12 (single isomer, unassigned) [Example 150, 2-((2-amino-7-(1H-pyrazol-5-yl)quinazolin-4-yl)amino)-1-(1-methyl-1H-imidazol-2-yl)ethan-1-ol] | 2450
10 | CC(C)(CO)CNc1nc(N)nc2cc(-c3ccn[nH]3)ccc12 [Example 73] | 230
11 | Cc1cccc2nc(CNc3nc(N)nc4cc(-c5ccn[nH]5)ccc34)cn12 [Example 161] | 2000
12 | C[C@H](O)CNc1nc(N)nc2cc(-c3ccn[nH]3)ccc12 [Example 36] | 710
13 | Nc1nc(N2CCCOCC2)c2ccc(-c3cc[nH]n3)cc2n1 [Example 120] | 680
14 | Nc1nc(NCC(F)F)c2ccc(-c3ccn[nH]3)cc2n1 [Example 78] | 630
15 | Nc1nc(NCCO)c2c(F)cc(-c3cc[nH]n3)cc2n1 [Example 126] | 760
16 | Nc1nc(NCc2cnc[nH]2)c2ccc(-c3ccn[nH]3)cc2n1 [Example 87] | 1630
17 | Nc1nc(NCC(F)(F)CO)c2ccc(-c3ccn[nH]3)cc2n1 [Example 88] | 220
18 | CO[C@@H]1C[C@@H](Nc2nc(N)nc3cc(-c4ccn[nH]4)ccc23)C[C@H]1O (racemic) [Example 141, rac-(1R,2R,4S)-4-((2-amino-7-(1H-pyrazol-5-yl)quinazolin-4-yl)amino)-2-methoxycyclopentan-1-ol] | 3650
19 | Nc1nc(NCCCO)c2cc(Cl)c(-c3ccn[nH]3)cc2n1 [Example 3, 3-((2-amino-6-chloro-7-(1H-pyrazol-5-yl)quinazolin-4-yl)amino)propan-1-ol] | 6840
20 | Nc1nc(NCc2cnccn2)c2ccc(-c3ccn[nH]3)cc2n1 [Example 52] | 780
21 | Nc1nc(NC2CCCOC2)c2ccc(-c3ccn[nH]3)cc2n1 (stereo not drawn) [Example 105] | 1980
22 | Nc1nc(Nc2ccccc2)c2ccc(-c3ccn[nH]3)cc2n1 [Example 111] | 400
23 | Nc1nc(N[C@@H]2CCOC2)c2ccc(-c3cc[nH]n3)cc2n1 [Example 121] | 1850
24 | Nc1nc(NCC2(O)CCOCC2)c2ccc(-c3ccn[nH]3)cc2n1 [Example 37] | 870
25 | CC(O)(CO)CNc1nc(N)nc2cc(-c3ccn[nH]3)ccc12 (racemic) [Example 11, rac-3-((2-amino-7-(1H-pyrazol-5-yl)quinazolin-4-yl)amino)-2-methylpropane-1,2-diol] | 1140
26 | Nc1nc(N[C@@H]2C[C@H]2c2cccnc2)c2ccc(-c3ccn[nH]3)cc2n1 (single isomer, unassigned) [Example 162, 7-(1H-pyrazol-5-yl)-N4-((trans)-2-(pyridin-3-yl)cyclopropyl)quinazoline-2,4-diamine] | 240

Row | Structure (SMILES) | EC50 [nM]
27 | Nc1nc(NCC2(CN3CCOCC3)CC2)c2ccc(-c3cc[nH]n3)cc2n1 [Example 195] | 300
28 | C[C@]1(O)CC[C@@H](Nc2nc(N)nc3cc(-c4ccn[nH]4)ccc23)C1 (racemic) [Example 107] | 670
29 | CCOCCNc1nc(N)nc2cc(-c3ccn[nH]3)ccc12 [Example 103] | 370
30 | Nc1nc(NCc2cccc3[nH]ncc23)c2ccc(-c3ccn[nH]3)cc2n1 [Example 156] | 440
31 | Nc1nc(NCCCCCO)c2ccc(-c3ccn[nH]3)cc2n1 [Example 86] | 220
32 | Nc1nc(NCc2cncs2)c2ccc(-c3ccn[nH]3)cc2n1 [Example 175] | 730
33 | COCCNc1nc(N)nc2cc(-c3ccn[nH]3)ccc12 [Example 102] | 210
34 | Nc1nc(NCc2ncco2)c2ccc(-c3ccn[nH]3)cc2n1 [Example 61] | 220
35 | Nc1nc(N[C@H]2C[C@@H](O)C[C@@H]2O)c2ccc(-c3cc[nH]n3)cc2n1 (racemic) [Example 117] | 1560
36 | Nc1nc(NCc2cocn2)c2ccc(-c3ccn[nH]3)cc2n1 [Example 155] | 490
37 | Nc1nc(NCCCO)c2ccc(-c3ccn[nH]3)cc2n1 [Example 14, 3-((2-amino-7-(1H-pyrazol-3-yl)quinazolin-4-yl)amino)propan-1-ol] | 370
38 | Nc1nc(NCc2cnn(-c3ccccc3)c2)c2ccc(-c3ccn[nH]3)cc2n1 [Example 169] | 730
39 | Nc1nc(NCc2cc3n(n2)CCCO3)c2ccc(-c3ccn[nH]3)cc2n1 [Example 44] | 2150
40 | CC(C)(O)C(O)CNc1nc(N)nc2cc(-c3ccn[nH]3)ccc12 (single isomer, unassigned) [Example 10, 1-((2-amino-7-(1H-pyrazol-5-yl)quinazolin-4-yl)amino)-3-methylbutane-2,3-diol] | 1860
41 | COc1cnnc(CNc2nc(N)nc3cc(-c4ccn[nH]4)ccc23)c1 [Example 188] | 8320
42 | Nc1nc(NC[C@H](O)CO)c2ccc(-c3ccn[nH]3)cc2n1 [Example 70] | 800
43 | Nc1nc(N[C@H]2COC[C@@H](O)C2)c2ccc(-c3ccn[nH]3)cc2n1 (single isomer, unassigned) [Example 13] | 1180
44 | C[C@@H](O)[C@@H](CO)Nc1nc(N)nc2cc(-c3ccn[nH]3)ccc12 [Example 64] | 3730
45 | Cn1cnc(CNc2nc(N)nc3cc(-c4ccn[nH]4)ccc23)n1 [Example 189] | 1410
46 | Nc1nc(NC[C@@H]2CCCC[C@@H]2O)c2ccc(-c3ccn[nH]3)cc2n1 (racemic) [Example 77] | 650
47 | Nc1nc(NCC2CC2(F)F)c2ccc(-c3cc[nH]n3)cc2n1 (single isomer, unassigned) [Example 199, N4-((2,2-Difluorocyclopropyl)methyl)-7-(1H-pyrazol-3-yl)quinazoline-2,4-diamine] | 80
48 | CO[C@H]1C[C@H](Nc2nc(N)nc3cc(-c4ccn[nH]4)ccc23)C1 [Example 173] | 140
49 | Nc1nc(NCCCO)c2c(Cl)cc(-c3cc[nH]n3)cc2n1 [Example 18, 3-((2-amino-5-chloro-7-(1H-pyrazol-3-yl)quinazolin-4-yl)amino)propan-1-ol] | 650
50 | C[C@@H](O)CNc1nc(N)nc2cc(-c3ccn[nH]3)ccc12 [Example 1, (R)-1-((2-amino-7-(1H-pyrazol-5-yl)quinazolin-4-yl)amino)propan-2-ol] | 450
51 | Nc1nc(NC2C[C@@H](O)[C@H](O)C2)c2ccc(-c3ccn[nH]3)cc2n1 (racemic) [Example 109] | 1950
